According to patent publication US20070117770A1, “Human ribosomal DNA (rDNA) and ribosomal RNA (rRNA) nucleic acids and uses thereof” (Cylene Pharmaceuticals, Inc., priority 2005, published 2007):

How the values were obtained:
Assay in all cases: EMSA, interference with nucleolin/nucleic acid ligand interaction
Assay type in all cases: binding
nucleolin/5701NT = biological target: T1, nucleolin/5701NT (Homo sapiens, UniProt P19338); conditions: ligand 5701NT, read-out: IC50, concentration of Compound A-1 required to dissociate half of the complexed nucleic acid ligand and nucleolin protein
T1 construct: without the N-terminal acidic stretches domain
Procedure: (§1) The following assays assessed effects of compounds on interactions between nucleolin and nucleic acid ligands capable of forming quadruplex (QP) and hairpin (HP) secondary structures. Nucleic acid ligands tested were a cMyc QP DNA having nucleotide sequence 5′-[…]-3′ (SEQ ID NO: 176) and a HP pre-rRNA region to which nucleolin binds, having the sequence 5′-[…]-3′ (SEQ ID NO: 177). In the assays, recombinant nucleolin (˜250 nM), which was fused to maltose binding protein and had the sequence under accession number NM_005381 without the N-terminal acidic stretches domain, was incubated with each of the two ^32P-labeled nucleic acid ligands (10 or 250 nM). Nucleolin and the nucleic acid ligand were incubated in the presence or absence of a test compound of Formula A-1, B-1, C-6 or C-7 in an incubation buffer (12.5 mM Tris, pH 7.6, 60 mM KCl, 1 mM MgCl2, 0.1 mM EDTA, 1 mM DTT, 5% glycerol, 0.1 mg/ml BSA) for 30 minutes at room temperature. Structures for A-1 and B-1 are shown above and structures for C-6 and C-7 are shown hereafter: [drawing 17] The resulting complexes were separated on a 6% DNA retardation gel using 0.5× TBE with 20 mM KCl as a running buffer (i.e., electrophoresis mobility shift assay (EMSA)).
(§2) The assay also was conducted using nucleic acid ligands derived from human ribosomal DNA. Sequences of these nucleic acids are shown in the preceding example. […] A “+” represents the weakest nucleolin affinity and least interference by compound A-1 and a “++++” represents the strongest nucleolin affinity and greatest interference by compound A-1.
(§3) The assay also was conducted in a filter-binding format. […] The protein-quadruplex mixtures were incubated for 30 min at ambient temperature and filtered through mixed cellulose ester membrane filters (Millipore) with gentle suction. The filters were washed twice with […] of binding buffer, dried and OptiPhase ‘SuperMix’ scintillation cocktail (Perkin Elmer) was added to the wells. Radioactivity was assayed with MicroBeta scintillation counter (Perkin Elmer). Binding curves were constructed and apparent Kd's and Bmax's for the complexes were calculated using the GraphPad Prizm software program (GraphPad Software). In the following table, the nucleic acid ligand is designated in the first column using the nomenclature described herein; the second column provides the nucleotide sequence of the nucleic acid ligand; the third column is the conformation of the ligand as determined by circular dichroism (M is mixed, P is parallel, A is antiparallel, C is complex, SS is single-stranded and ND is not determined); the fourth column is the dissociation constant determined by the filter binding assay of nucleolin protein and the nucleic acid ligand; the fifth column is a Bmax constant determined by the filter binding assay, which is the percent of active nucleic acid ligand in each assay; and the sixth column presents the concentration of Compound A-1 required to dissociate half of the complexed nucleic acid ligand and nucleolin protein, as determined by the EMSA assay described above.

nucleolin/8511NT = biological target: T2, nucleolin/8511NT (Homo sapiens, UniProt P19338); conditions: ligand 8511NT, read-out: IC50, concentration of Compound A-1 required to dissociate half of the complexed nucleic acid ligand and nucleolin protein
T2 construct: without the N-terminal acidic stretches domain
Procedure: as §1, §2, §3

nucleolin/8762NT = biological target: T3, nucleolin/8762NT (Homo sapiens, UniProt P19338); conditions: ligand 8762NT, read-out: IC50, concentration of Compound A-1 required to dissociate half of the complexed nucleic acid ligand and nucleolin protein
T3 construct: without the N-terminal acidic stretches domain
Procedure: as §1, §2, §3

nucleolin/6960NT = biological target: T4, nucleolin/6960NT (Homo sapiens, UniProt P19338); conditions: ligand 6960NT, read-out: IC50, concentration of Compound A-1 required to dissociate half of the complexed nucleic acid ligand and nucleolin protein
T4 construct: without the N-terminal acidic stretches domain
Procedure: as §1, §2, §3

nucleolin/2957NT = biological target: T5, nucleolin/2957NT (Homo sapiens, UniProt P19338); conditions: ligand 2957NT, read-out: IC50, concentration of Compound A-1 required to dissociate half of the complexed nucleic acid ligand and nucleolin protein
T5 construct: without the N-terminal acidic stretches domain
Procedure: as §1, §2, §3

nucleolin/7253NT = biological target: T6, nucleolin/7253NT (Homo sapiens, UniProt P19338); conditions: ligand 7253NT, read-out: IC50, concentration of Compound A-1 required to dissociate half of the complexed nucleic acid ligand and nucleolin protein
T6 construct: without the N-terminal acidic stretches domain
Procedure: as §1, §2, §3

nucleolin/6374NT = biological target: T7, nucleolin/6374NT (Homo sapiens, UniProt P19338); conditions: ligand 6374NT, read-out: IC50, concentration of Compound A-1 required to dissociate half of the complexed nucleic acid ligand and nucleolin protein
T7 construct: without the N-terminal acidic stretches domain
Procedure: as §1, §2, §3

T6 sequence (P19338 284-710 limits assumed): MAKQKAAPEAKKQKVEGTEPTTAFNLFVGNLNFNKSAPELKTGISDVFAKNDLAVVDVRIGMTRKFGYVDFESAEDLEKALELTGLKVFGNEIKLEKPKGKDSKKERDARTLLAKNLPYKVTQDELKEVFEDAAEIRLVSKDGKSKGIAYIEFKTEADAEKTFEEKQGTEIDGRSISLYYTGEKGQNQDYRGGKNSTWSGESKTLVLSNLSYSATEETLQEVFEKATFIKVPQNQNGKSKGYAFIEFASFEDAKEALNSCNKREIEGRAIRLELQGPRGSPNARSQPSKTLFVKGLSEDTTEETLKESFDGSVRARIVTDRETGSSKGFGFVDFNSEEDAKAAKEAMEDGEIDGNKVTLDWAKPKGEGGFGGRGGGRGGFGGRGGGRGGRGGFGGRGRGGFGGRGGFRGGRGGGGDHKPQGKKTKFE
T4 sequence (P19338 284-710 limits assumed): as above
T5 sequence (P19338 284-710 limits assumed): as above
T7 sequence (P19338 284-710 limits assumed): as above
T1 sequence (P19338 284-710 limits assumed): as above
T3 sequence (P19338 284-710 limits assumed): as above
T2 sequence (P19338 284-710 limits assumed): as above

- IC50 (nucleolin/5701NT): 3 µM
- IC50 (nucleolin/8511NT): 10 µM
- IC50 (nucleolin/8762NT): 10 µM
- IC50 (nucleolin/6960NT): 3 µM
- IC50 (nucleolin/2957NT): 1 µM
- IC50 (nucleolin/7253NT): 10 µM
- IC50 (nucleolin/6374NT): 3 µM
Compound: CN1CCCC1CCNC(=O)c1cn2c3c(c(N4CCC(c5cnccn5)C4)c(F)cc3c1=O)Oc1cc3ccccc3cc1-2 (stereo not shown) [Compound A-1]
